Measured values taken from ChEMBL document CHEMBL4219250, “Kröhnke pyridines: Rapid and facile access to Mcl-1 inhibitors” (Bioorg Med Chem Lett, 2018).
Active and inactive are the calls of the source. The calls are words filed in the database; no cut-off is given here.

Target: T1, Induced myeloid leukemia cell differentiation protein Mcl-1 (Homo sapiens, UniProt Q07820)
Assay: Binding affinity to 15N-labeled His6-MBP-tagged recombinant human MCl-1 (172 to 327 residues) expressed in HMS174 (DE3) cells by two-dimensional1H-15N HSQC NMR spectra method
Format: cell-based

T1 sequence (Q07820 whole entry, the tested form may be a part): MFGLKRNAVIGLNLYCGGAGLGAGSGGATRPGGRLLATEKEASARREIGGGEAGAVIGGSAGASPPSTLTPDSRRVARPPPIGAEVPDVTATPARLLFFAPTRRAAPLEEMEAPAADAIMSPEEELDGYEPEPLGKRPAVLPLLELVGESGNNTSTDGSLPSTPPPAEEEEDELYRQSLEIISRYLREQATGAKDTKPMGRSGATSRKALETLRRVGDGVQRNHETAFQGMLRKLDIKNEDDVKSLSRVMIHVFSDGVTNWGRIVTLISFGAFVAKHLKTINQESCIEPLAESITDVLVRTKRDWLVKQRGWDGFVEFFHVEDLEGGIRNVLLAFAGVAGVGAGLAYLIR

Row | SMILES | Activity
1 | O=C(O)c1cc(-c2ccc(Br)cc2)nc(-c2ccc(Oc3ccccc3)cc2)c1 | Active

Target: T1, Induced myeloid leukemia cell differentiation protein Mcl-1
Assay: Displacement of TAMRA-Bak peptide from His6-MBP-tagged recombinant human MCl-1 (172 to 327 residues) expressed in HMS174 (DE3) cells by fluorescence polarization assay

Row | SMILES | Ki
2 | O=C(O)c1cc(-c2ccc(Oc3ccccc3)cc2)cc(-c2ccc([N+](=O)[O-])cc2)n1 | 13.7 µM
3 | CC(C)Oc1ccc(-c2cc(-c3ccc(Oc4ccccc4)cc3)cc(C(=O)O)n2)cc1 | 7.33 µM
4 | O=C(O)c1cc(-c2ccc(Oc3ccccc3)cc2)cc(-c2cccc(Br)c2)n1 | 8.47 µM
5 | O=C(O)c1cc(-c2ccc(Oc3ccccc3)cc2)cc(-c2ccc3c(c2)OCO3)n1 | 38.2 µM
6 | CC(C)Oc1ccc(-c2cc(C(=O)O)nc(-c3ccc(OC(C)C)cc3OC(C)C)c2)cc1 | 19.7 µM
7 | O=C(O)c1cc(-c2ccc(Br)cc2)cc(-c2ccc(Br)cc2)n1 | 40 µM
8 | CC(C)Oc1ccc(-c2cc(C(=O)O)nc(-c3ccc(OC(C)C)cc3)c2)cc1 | 28.8 µM
9 | O=C(O)c1cc(-c2ccc(Oc3ccccc3)cc2)cc(-c2ccc(Br)cc2)n1 | 7.44 µM
10 | O=C(O)c1cc(-c2ccc(Oc3ccccc3)cc2)cc(-c2ccc(OCc3ccccc3)cc2)n1 | 6.1 µM
11 | O=C(O)c1cc(-c2ccc(Br)cc2)cc(-c2ccc3c(c2)OCO3)n1 | > 100 µM
12 | O=C(O)c1cc(-c2ccc(Br)cc2)nc(-c2ccc(Oc3ccccc3)cc2)c1 | 4.43 µM
13 | COc1ccc(-c2cc(-c3ccc(Br)cc3)cc(C(=O)O)n2)cc1 | 40 µM
14 | O=C(O)c1cc(-c2ccc(Br)cc2)cc(-c2ccc(Cl)cc2)n1 | 40 µM
15 | O=C(O)c1cc(-c2ccc(OCc3ccccc3)cc2)cc(-c2ccc(OCc3ccccc3)cc2)n1 | 9.22 µM
16 | O=C(O)c1cc(-c2ccc(Oc3ccccc3)cc2)cc(-c2ccccc2)n1 | 9.24 µM
17 | CC(C)Oc1ccc(-c2cc(C(=O)O)nc(-c3ccc(OCc4ccccc4)cc3)c2)cc1 | 9.77 µM
18 | O=C(O)c1cc(-c2ccc(Br)cc2)cc(-c2ccccc2)n1 | 100 µM
19 | COc1ccc(-c2cc(-c3ccc(Oc4ccccc4)cc3)cc(C(=O)O)n2)cc1 | 10.9 µM
20 | O=C(O)c1cc(-c2ccc(Oc3ccccc3)cc2)cc(-c2ccccc2Br)n1 | 10.3 µM
21 | O=C(O)c1cc(-c2ccc(Br)cc2)cc(-c2ccc(OCc3ccccc3)cc2)n1 | 7.6 µM
